Test results from ChEMBL document CHEMBL3233012, “Synthesis, antimicrobial and cytotoxic activities of pyrimidinyl benzoxazole, benzothiazole and benzimidazole” (Eur J Med Chem, 2014).
Values after ≈ are worked out from the molar mass of the structure shown. Active and inactive are the calls of the source. No cut-off for these calls is given here.

Assays:
[1] = system: A549; test: Cytotoxicity against human A549 cells assessed as reduction in cell viability up to 200 uM after 20 hrs by MTT assay; format: functional, cell-based
[2] = system: Pseudomonas aeruginosa; test: Antimicrobial activity against Pseudomonas aeruginosa at 50 ug/well after 24 hrs by agar well diffusion method; format: functional; conditions: read-out: DIZ
[3] = system: Staphylococcus aureus; test: Antimicrobial activity against Staphylococcus aureus at 100 ug/well after 24 hrs by agar well diffusion method; format: functional; conditions: read-out: DIZ
[4] = system: Staphylococcus aureus; test: Antimicrobial activity against Staphylococcus aureus at 25 ug/well after 24 hrs by agar well diffusion method; format: functional; conditions: read-out: DIZ
[5] = system: Penicillium chrysogenum; test: Antimicrobial activity against Penicillium chrysogenum at 25 ug/well after 48 hrs by agar well diffusion method; format: functional; conditions: for zone of inhibition at 25 µg/disc: read-out: DIZ
[6] = system: Penicillium chrysogenum; test: Antimicrobial activity against Penicillium chrysogenum at 50 ug/well after 48 hrs by agar well diffusion method; format: functional; conditions: read-out: DIZ
[7] = system: Escherichia coli; test: Antimicrobial activity against Escherichia coli at 50 ug/well after 24 hrs by agar well diffusion method; format: functional; conditions: read-out: DIZ
[8] = system: Aspergillus niger; test: Antimicrobial activity against Aspergillus niger at 100 ug/well after 48 hrs by agar well diffusion method; format: functional; conditions: read-out: DIZ
[9] = system: Pseudomonas aeruginosa; test: Antimicrobial activity against Pseudomonas aeruginosa at 25 ug/well after 24 hrs by agar well diffusion method; format: functional; conditions: read-out: DIZ
[10] = system: Escherichia coli; test: Antimicrobial activity against Escherichia coli at 100 ug/well after 24 hrs by agar well diffusion method; format: functional; conditions: read-out: DIZ
[11] = system: Escherichia coli; test: Antimicrobial activity against Escherichia coli at 25 ug/well after 24 hrs by agar well diffusion method; format: functional; conditions: read-out: DIZ
[12] = system: Penicillium chrysogenum; test: Antimicrobial activity against Penicillium chrysogenum at 100 ug/well after 48 hrs by agar well diffusion method; format: functional; conditions: read-out: DIZ
[13] = system: Aspergillus niger; test: Antimicrobial activity against Aspergillus niger at 25 ug/well after 48 hrs by agar well diffusion method; format: functional; conditions: for zone of inhibition at 25 µg/disc: read-out: DIZ
[14] = system: Staphylococcus aureus; test: Antimicrobial activity against Staphylococcus aureus at 50 ug/well after 24 hrs by agar well diffusion method; format: functional; conditions: read-out: DIZ
[15] = system: Aspergillus niger; test: Antimicrobial activity against Aspergillus niger at 50 ug/well after 48 hrs by agar well diffusion method; format: functional; conditions: read-out: DIZ
[16] = system: Pseudomonas aeruginosa; test: Antimicrobial activity against Pseudomonas aeruginosa at 100 ug/well after 24 hrs by agar well diffusion method; format: functional; conditions: read-out: DIZ
[17] = system: Staphylococcus aureus; test: Antimicrobial activity against Staphylococcus aureus ATCC 25923 after 24 hrs by broth dilution method; format: functional
[18] = system: Penicillium chrysogenum; test: Antimicrobial activity against Penicillium chrysogenum after 24 hrs by broth dilution method; format: functional
[19] = system: Escherichia coli; test: Antimicrobial activity against Escherichia coli ATCC 25922 after 24 hrs by broth dilution method; format: functional
[20] = system: Aspergillus niger; test: Antimicrobial activity against Aspergillus niger after 24 hrs by broth dilution method; format: functional
[21] = system: A549; test: Cytotoxicity against human A549 cells assessed as reduction in cell viability after 20 hrs by MTT assay; format: functional, cell-based; conditions: for IC50: A549, 20 h
[22] = system: Aspergillus niger; test: Antimicrobial activity against Aspergillus niger after 24 hrs; format: functional
[23] = system: Pseudomonas aeruginosa; test: Antimicrobial activity against Pseudomonas aeruginosa ATCC 27853 after 24 hrs by broth dilution method; format: functional
[24] = system: Staphylococcus aureus; test: Antimicrobial activity against Staphylococcus aureus ATCC 25923 after 24 hrs; format: functional; conditions: ATCC 25923, 24 h
[25] = system: Escherichia coli; test: Antimicrobial activity against Escherichia coli ATCC 25922 after 24 hrs; format: functional; conditions: ATCC 25922, 24 h
[26] = system: Staphylococcus aureus; test: Ratio of MBC to MIC for Staphylococcus aureus ATCC 25923; format: functional
[27] = system: Penicillium chrysogenum; test: Antimicrobial activity against Penicillium chrysogenum after 24 hrs; format: functional
[28] = system: Pseudomonas aeruginosa; test: Antimicrobial activity against Pseudomonas aeruginosa ATCC 27853 after 24 hrs; format: functional; conditions: ATCC 27853, 24 h
[29] = system: Penicillium chrysogenum; test: Ratio of MBC to MIC for Penicillium chrysogenum; format: functional

Compound	Activity [1]	zone of inhibition at 50 µg/disc [2] [mm]	zone of inhibition at 100 µg/disc [3] [mm]	zone of inhibition at 25 µg/disc [4] [mm]	zone of inhibition at 25 µg/disc [5] [mm]	zone of inhibition at 50 µg/disc [6] [mm]	zone of inhibition at 50 µg/disc [7] [mm]	zone of inhibition at 100 µg/disc [8] [mm]	zone of inhibition at 25 µg/disc [9] [mm]	zone of inhibition at 100 µg/disc [10] [mm]	zone of inhibition at 25 µg/disc [11] [mm]	zone of inhibition at 100 µg/disc [12] [mm]	zone of inhibition at 25 µg/disc [13] [mm]	zone of inhibition at 50 µg/disc [14] [mm]	zone of inhibition at 50 µg/disc [15] [mm]	zone of inhibition at 100 µg/disc [16] [mm]	further results
Cc1cc(Nc2nc3ccccc3o2)nc(SCc2nc3ccccc3o2)n1	inactive	14	17	10	19	21	17	19	11	20	12	24	15	13	17	17	–
O=C(O)c1cn(C2CC2)c2cc(N3CCNCC3)c(F)cc2c1=O [CIPROFLOXACIN]	–	28	27	22	–	–	35	–	25	38	30	–	–	24	–	30	MIC ([17]; ATCC 25923, 24 h): 12.5 µg/mL (≈ 37.7 µM); MIC [18]: inactive; MIC ([19]; ATCC 25922, 24 h): 12.5 µg/mL (≈ 37.7 µM); MIC [20]: inactive
Cc1cc(Sc2nc3ccccc3s2)nc(SCc2nc3ccccc3s2)n1	–	15	16	10	12	13	17	15	13	20	14	15	10	12	12	16	inhibition [21]: Dose-dependent effect; IC50 [21]: 70 µM
Cc1cc(Cl)nc(SCc2nc3ccccc3o2)n1	inactive	7	8	5	–	8	8	9	5	11	6	10	–	7	7	8	diameter of the inhibition zone (DIZ) [5]: inactive; diameter of the inhibition zone (DIZ) [13]: inactive
Cc1cc(Sc2nc3ccccc3[nH]2)nc(SCc2nc3ccccc3[nH]2)n1	inactive	17	19	13	15	17	20	17	14	22	17	19	14	16	15	18	–
Cc1cc(SCc2nc3ccccc3[nH]2)nc(SCc2nc3ccccc3[nH]2)n1	inactive	25	29	23	33	35	32	32	22	35	28	38	27	26	30	27	MFC [22]: 100 µg/mL (≈ 239 µM); MIC ([17]; ATCC 25923, 24 h): 12.5 µg/mL (≈ 29.9 µM); MIC ([23]; ATCC 27853, 24 h): 12.5 µg/mL (≈ 29.9 µM); MBC [24]: 25 µg/mL (≈ 59.7 µM); MIC [18]: 12.5 µg/mL (≈ 29.9 µM); MBC [25]: 200 µg/mL (≈ 478 µM); MIC ([19]; ATCC 25922, 24 h): 50 µg/mL (≈ 119 µM); Ratio [26]: 2; MFC [27]: 25 µg/mL (≈ 59.7 µM); MBC [28]: 100 µg/mL (≈ 239 µM); Ratio [29]: 2; MIC [20]: 12.5 µg/mL (≈ 29.9 µM)
Cc1cc(Nc2nc3ccccc3s2)nc(SCc2nc3ccccc3s2)n1	–	17	18	13	27	29	20	21	14	23	15	32	17	16	19	18	inhibition [21]: Dose-dependent effect; IC50 [21]: 10.5 µM
Cc1cc(Nc2nc3ccccc3[nH]2)nc(SCc2nc3ccccc3[nH]2)n1	inactive	19	20	15	29	31	22	25	16	25	19	33	20	17	23	21	–
Cc1cc(Cl)nc(SCc2nc3ccccc3[nH]2)n1	inactive	10	12	8	8	10	13	11	8	16	8	12	7	10	9	12	–
CC(=O)N1CCN(c2ccc(OCC3COC(Cn4ccnc4)(c4ccc(Cl)cc4Cl)O3)cc2)CC1 (stereo not drawn) [KETOCONAZOLE]	–	–	–	–	35	36	–	36	–	–	–	38	31	–	33	–	MIC [17]: inactive; MIC [23]: inactive; MIC [18]: 12.5 µg/mL (≈ 23.5 µM); MIC [19]: inactive; MIC [20]: 6.25 µg/mL (≈ 11.8 µM)
Cc1cc(Cl)nc(SCc2nc3ccccc3s2)n1	inactive	9	16	6	7	9	10	10	7	14	7	11	–	4	8	10	diameter of the inhibition zone (DIZ) [13]: inactive
Cc1cc(Sc2nc3ccccc3o2)nc(SCc2nc3ccccc3o2)n1	inactive	11	14	9	9	11	15	12	10	17	10	13	8	11	10	14	–
